Laboratory results published in patent US20240391931A1 (Bristol-Myers Squibb Company, priority 2021, published 2024).

The compounds below were run against HER2YVMA (Homo sapiens, UniProt P04626, INS775YVMA) (assay: HER2 signaling (pHER2) in Hek293-HER2YVMA cells). Details: 1.5 hr compound, 1% FBS, read-out: HEKYVMA pHER2 EC50.
Format: cell-based
Set-up: expressed in transfected cells; host or cells: HEK293 (pool), Ba/F3 (clones), BEAS2B (clones); lentiviral vector pCDH-CMV-MCS-EF1-Neo
Experimental: Cell culture, plasmid cloning, and lentiviral transduction were carried out according to standard procedures. The Human HER2 cDNA construct in pCMV6-Entry for the HER2 wildtype (WT) expression was obtained from Origene. The HER2 cDNA including the 12-nucleotide insertion corresponding to YVMA insertion (HER2YVMA) was codon optimized, synthesized and cloned by GenScript (Piscataway, NJ) in pcDNA3.1. The lentiviral constructs expressing HER2YVMA and HER2 WT were sub-cloned using PCR at System Biosciences (SBI, Mountainview, CA) into lentiviral vectors pCDH-CMV-MCS-EF1-Neo and lentiviral particles were generated.
Engineered lines expressing HER2YVMA and HER2 WT were prepared in HEK293 (human embryonic kidney cells), Ba/F3 (Interleukin 3 (IL3)-dependent murine pro B cell line), and BEAS2B (primary immortalized human bronchial epithelial cell line). Ba/F3, BEAS2B, and HEK293 cells were obtained from the American Type Culture Collection (ATCC, Manassas, VA). Parental Ba/F3 cells were grown in suspension in complete RPMI 1640 supplemented with 10% FBS and 1% P/S and 10 ng/ml interleukin 3 (IL3, Sigma-Aldrich). Hek293 and BEAS2B cells were grown as monolayers in DMEM supplemented with 10% FBS and 1% P/S. All cells were maintained and propagated in a humidified 5% CO2 incubator at 37° C.
To generate Ba/F3, BEAS2B, and Hek-293 cells engineered with lentivirus to express HER2 WT or HER2YVMA, the cells were transduced with lentiviruses at multiplicity of infection (MOI) of 1 or 10; transduced cells were selected and maintained with G418 ([…]) (Geneticin, Life Technologies, Carlsbad, CA). Ba/F3 engineered cells were subjected to gradual withdrawal of interleukin 3 (IL-3, Sigma-Aldrich). After selection, IL3 independent Ba/F3 HER2YVMA, and BEAS2B HER2YVMA cells were cloned by limiting dilution. Hek293 HER2YVMA cells were used as pool. HER2 and phospho HER2 levels were confirmed by flow cytometery and immunoassay (MSD, Meso-Scale Discovery, Rockville, Maryland).
HER2 signaling was assessed in BT474 and N87 cell lines which endogenously overexpress the HER2 wildtype (WT) protein, in NCI-H1781 cells which endogenously expresses a HER2 mutant protein containing a VC insertion in the kinase domain (HER2VC or G776delinsVC), and in engineered cell lines transduced to express the Her2 mutant protein containing the YVMA insertion (Hek293-HER2YVMA and BEAS2B-HER2YVMA).
BT474, N87, and NCI-H1781 were plated in 96-well tissue-culture treated plates (Corning Costar, Sigma-Aldrich) in full media and incubated overnight. Hek293-HER2YVMA and BEAS2B-HER2YVMA cells were plated in 96-well poly-D-lysine treated plates (BD Bioscience, San Jose, CA). For treatment with test compounds, the media was replaced with corresponding low serum media (1% FBS) containing test compound at 1.1, 0.37, 0.12, 0.041, 0.014, 0.005, 0.0014, 0.0005 μM or DMSO control (0.1%). Cells were incubated with compound for 1.5 hr at 37° C. After compound treatment, the media was removed and cells were lysed for 30 min on ice in complete MSD lysis buffer (prepared using MSD base lysis buffer (Meso-Scale Discovery) supplemented with cOmplete, EDTA-free Protease inhibitor cocktail (Roche), Phosphatase Inhibitor Cocktails 2 and 3 (Sigma-Aldrich), and 1 mM PMSF (Sigma-Aldrich)). Lysates were stored at −70° C. until further analysis.
HER2 signaling was evaluated using phospho (Tyr1248)/total ErbB2 whole cell lysate MSD plates (Meso-Scale Discovery, Gaithersburg, MD). The phospho HER2 signal was normalized to total HER2 for each sample; results are reported as % DMSO control. The normalized data was fitted using a sigmoidal curve analysis program (Graph Pad Prism version 6) with variable Hill slope to determine EC50 values.
The HER2 signaling results are provided in Table 4, under columns titled “BT474-pHER2 EC50”, “N87-pHER2 EC50”, and “NCI-H1781-pHER2 EC50”. […]

HER2YVMA, sequence (P04626 with tags, fused parts or gaps INS775YVMA): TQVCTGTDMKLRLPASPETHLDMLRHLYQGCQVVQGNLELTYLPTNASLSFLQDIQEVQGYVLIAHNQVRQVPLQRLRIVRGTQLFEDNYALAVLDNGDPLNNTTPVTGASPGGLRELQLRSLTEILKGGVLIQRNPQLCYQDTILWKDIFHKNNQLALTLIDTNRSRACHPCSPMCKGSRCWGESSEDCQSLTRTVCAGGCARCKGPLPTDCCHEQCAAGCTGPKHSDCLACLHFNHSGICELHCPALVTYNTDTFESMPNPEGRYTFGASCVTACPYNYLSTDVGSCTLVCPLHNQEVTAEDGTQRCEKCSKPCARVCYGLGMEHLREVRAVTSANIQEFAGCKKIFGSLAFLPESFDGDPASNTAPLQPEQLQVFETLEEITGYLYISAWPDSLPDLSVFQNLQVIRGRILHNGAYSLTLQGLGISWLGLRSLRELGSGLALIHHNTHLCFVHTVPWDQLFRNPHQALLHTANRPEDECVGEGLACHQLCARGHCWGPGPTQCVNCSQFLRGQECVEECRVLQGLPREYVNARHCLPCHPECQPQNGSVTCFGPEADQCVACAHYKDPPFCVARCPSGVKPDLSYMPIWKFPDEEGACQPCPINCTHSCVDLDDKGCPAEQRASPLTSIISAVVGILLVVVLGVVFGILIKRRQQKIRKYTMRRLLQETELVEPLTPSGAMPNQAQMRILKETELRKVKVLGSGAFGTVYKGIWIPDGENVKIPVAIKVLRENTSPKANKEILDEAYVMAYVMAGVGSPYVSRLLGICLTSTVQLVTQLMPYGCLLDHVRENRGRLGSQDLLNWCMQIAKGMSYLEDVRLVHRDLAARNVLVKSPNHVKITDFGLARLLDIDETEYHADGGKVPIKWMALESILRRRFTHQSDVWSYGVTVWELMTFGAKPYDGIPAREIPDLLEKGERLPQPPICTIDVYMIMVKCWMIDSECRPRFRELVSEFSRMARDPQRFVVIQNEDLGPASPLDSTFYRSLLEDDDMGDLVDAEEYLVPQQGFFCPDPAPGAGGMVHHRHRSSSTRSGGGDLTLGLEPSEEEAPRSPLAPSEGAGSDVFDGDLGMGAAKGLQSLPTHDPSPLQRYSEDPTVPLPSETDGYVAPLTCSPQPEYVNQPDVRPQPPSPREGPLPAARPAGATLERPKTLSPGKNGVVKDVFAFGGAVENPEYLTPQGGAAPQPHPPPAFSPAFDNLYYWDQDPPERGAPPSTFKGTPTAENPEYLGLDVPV

Structure (SMILES) | EC50
Cc1cc(Nc2ncnc3sc4c(c23)CCN(C(=O)/C=C/CN(C)C)C4)ccc1Oc1ccn2ncnc2c1 [Compound 138, (E)-1-(4-((4-([1,2,4]triazolo[1,5-a]pyridin-7-yloxy)-3-methylphenyl)amino)-5,8-dihydropyrido[4′,3′:4,5]thieno[2,3-d]pyrimidin-7(6H)-yl)-4-(dimethylamino)but-2-en-1-one] | < 100 nM
Cc1ccc(Oc2ccc(Nc3ncnc4sc5c(c34)C(C)N(C(=O)/C=C/CN(C)C)C5)cc2C)cn1 (centres unmarked) [Compound 141, (E)-4-(dimethylamino)-1-(5-methyl-4-((3-methyl-4-((6-methylpyridin-3-yl)oxy)phenyl)amino)-5,7-dihydro-6H-pyrrolo[3′,4′:4,5]thieno[2,3-d]pyrimidin-6-yl)but-2-en-1-one] | < 100 nM
C=CC(=O)N1Cc2sc3ncnc(Nc4ccc(Oc5ccc(C)nc5)c(C)c4)c3c2C(C)C1 (centres unmarked) [Compound 142, 1-(5-methyl-4-((3-methyl-4-((6-methylpyridin-3-yl)oxy)phenyl)amino)-5,6-dihydropyrido[4′,3′:4,5]thieno[2,3-d]pyrimidin-7(8H)-yl)prop-2-en-1-one] | < 100 nM
Cc1ccc(Oc2ccc(Nc3ncnc4sc5c(c34)CCN(C(=O)/C=C/CN3CCO[C@@H](CO)C3)C5)cc2C)cn1 [Compound 144] | 100 to 350 nM
Cc1ccc(Oc2ccc(Nc3ncnc4sc5c(c34)CCN(C(=O)/C=C/CN3CC(F)(CO)C3)C5)cc2C)cn1 [Compound 151] | 100 to 350 nM
Cc1ccc(Oc2ccc(Nc3ncnc4sc5c(c34)CN(C(=O)/C=C/CN(C)C)C5C)cc2C)cn1 (centres unmarked) [Compound 153, (E)-4-(dimethylamino)-1-(7-methyl-4-((3-methyl-4-((6-methylpyridin-3-yl)oxy)phenyl)amino)-5,7-dihydro-6H-pyrrolo[3′,4′:4,5]thieno[2,3-d]pyrimidin-6-yl)but-2-en-1-one] | < 100 nM
Cc1cc(Nc2ncnc3sc4c(c23)CCN(C(=O)/C=C/CN(C)C)C4)ccc1Oc1ccc(N(C)C)nc1 [Compound 158, (E)-4-(dimethylamino)-1-(4-((4-((6-(dimethylamino)pyridin-3-yl)oxy)-3-methylphenyl)amino)-5,8-dihydropyrido[4′,3′:4,5]thieno[2,3-d]pyrimidin-7(6H)-yl)but-2-en-1-one] | < 100 nM
COc1ccc(Oc2ccc(Nc3ncnc4sc5c(c34)CCN(C(=O)/C=C/CN(C)C(C)(C)C)C5)cc2C)cn1 [Compound 163] | < 100 nM
Cc1ccc(Oc2ccc(Nc3ncnc4sc5c(c34)CCN(C(=O)/C=C/CN(C)C)CC5)cc2Cl)cn1 [Compound 167, (E)-1-(4-((3-Chloro-4-((6-methylpyridin-3-yl)oxy)phenyl)amino)-8,9-dihydro-5H-pyrimido[5′,4′:4,5]thieno[2,3-d]azepin-7(6H)-yl)-4-(dimethylamino)but-2-en-1-one] | 100 to 350 nM
COc1ccc(Oc2ccc(Nc3ncnc4sc5c(c34)CCN(C(=O)/C=C/CN(C)C)CC5)cc2C)cn1 [Compound 173, (E)-4-(Dimethylamino)-1-(4-((4-((6-methoxypyridin-3-yl)oxy)-3-methylphenyl)amino)-8,9-dihydro-5H-pyrimido[5′,4′:4,5]thieno[2,3-d]azepin-7(6H)-yl)but-2-en-1-one] | 100 to 350 nM
Cc1ccc(Oc2ccc(Nc3ncnc4sc5c(c34)C(C)CN(C(=O)/C=C/CN3CCOCC3)C5)cc2C)cn1 (centres unmarked) [Compound 174, (E)-1-(5-Methyl-4-((3-methyl-4-((6-methylpyridin-3-yl)oxy)phenyl)amino)-5,6-dihydropyrido[4′,3′:4,5]thieno[2,3-d]pyrimidin-7(8H)-yl)-4-morpholinobut-2-en-1-one] | < 100 nM
Cc1ccc(Oc2ccc(Nc3ncnc4sc5c(c34)C(C)CN(C(=O)/C=C/CN(C)C(C)(C)C)C5)cc2C)cn1 (centres unmarked) [Compound 175] | < 100 nM

Other lines, results leading:

EC50 | Structure (SMILES)
< 100 nM | C#CCOCCN(C)C/C=C/C(=O)N1CCc2c(sc3ncnc(Nc4ccc(Oc5ccc(C)nc5)c(C)c4)c23)C1 [Compound 139]
< 100 nM | COc1ccc(Oc2ccc(Nc3ncnc4sc5c(c34)CCN(C(=O)/C=C/CN3CC[C@H](CO)C3)C5)cc2C)cn1 [Compound 140]
< 100 nM | COc1ccc(Oc2ccc(Nc3ncnc4sc5c(c34)CCN(C(=O)/C=C/CN3CC[C@@H](CO)C3)C5)cc2C)cn1 [Compound 143]
< 100 nM | Cc1ccc(Oc2ccc(Nc3ncnc4sc5c(c34)CCN(C(=O)/C=C/CN3CCCC(F)(CO)C3)C5)cc2C)cn1 (centres unmarked) [Compound 150]
< 100 nM | COc1ccc(Oc2ccc(Nc3ncnc4sc5c(c34)C(C)CN(C(=O)/C=C/CN(C)C)C5)cc2C)cn1 (centres unmarked) [Compound 152, (E)-4-(dimethylamino)-1-(4-((4-((6-methoxypyridin-3-yl)oxy)-3-methylphenyl)amino)-5-methyl-5,8-dihydropyrido[4′,3′:4,5]thieno[2,3-d]pyrimidin-7(6H)-yl)but-2-en-1-one]
< 100 nM | Cc1ccc(Oc2ccc(Nc3ncnc4sc5c(c34)CCN(C(=O)/C=C/CN3CCC[C@@H](CO)C3)C5)cc2C)cn1 [Compound 154]
< 100 nM | Cc1ccc(Oc2ccc(Nc3ncnc4sc5c(c34)CCN(C(=O)/C=C/CN3CCC[C@H](CO)C3)C5)cc2C)cn1 [Compound 155]
< 100 nM | COc1ccc(Oc2ccc(Nc3ncnc4sc5c(c34)CCN(C(=O)/C=C/CN3CCOCC3)C5)cc2C)cn1 [Compound 164]
100 to 350 nM | Cc1cc(Nc2ncnc3sc4c(c23)CCN(C(=O)/C=C/CN(C)C)CC4)ccc1Oc1ccn2ncnc2c1 [Compound 168]
< 100 nM | Cc1ccc(Oc2ccc(Nc3ncnc4sc5c(c34)C(C)CN(C(=O)/C=C/CN(C)C)C5)cc2Cl)cn1 (centres unmarked) [Compound 171, (E)-1-(4-((3-Chloro-4-((6-methylpyridin-3-yl)oxy)phenyl)amino)-5-methyl-5,6-dihydropyrido[4′,3′:4,5]thieno[2,3-d]pyrimidin-7(8H)-yl)-4-(dimethylamino)but-2-en-1-one]
100 to 350 nM | Cc1cc(Nc2ncnc3sc4c(c23)CCN(C(=O)/C=C/CN(C)C)CC4)ccc1Oc1ccn2ccnc2c1 [Compound 172, (E)-4-(Dimethylamino)-1-(4-((4-(imidazo[1,2-a]pyridin-7-yloxy)-3-methylphenyl)amino)-8,9-dihydro-5H-pyrimido[5′,4′:4,5]thieno[2,3-d]azepin-7(6H)-yl)but-2-en-1-one]
